Assay results from patent US20120009280A1, “METHOD OF REDUCING THE RATE OF DEGRADATION OF A BIOLOGICAL MATERIAL” (Bio-Energy Ingredients Limited, priority 2009, published 2012).

What was measured:
yeast = assay: Yeast count of spent brewer's / wet distiller's grains stored at ambient temperature; format: cell-based
mould = assay: Mould count of spent brewer's / wet distiller's grains stored at ambient temperature; format: cell-based
Description: Samples of Portion 1 (“AR”), Portion 3 (“SO”) and Portion 5 (“SH”) were then delivered to a microbiological testing facility about 15 kilometres from the treatment laboratory. Each was tested for initial total microbial, yeast and mould counts, respectively.
Separate untreated samples were similarly stored under insect-proof screens at ambient temperature for seven days (as shown in Tables 1 and 2). During the trial period the ambient temperature ranged from 11 to 33 degrees C.
(§1) The free moisture content on the initial spent brewer's grains was determined to be 78.1% m/m. After exposure to the environment for seven days, all of the samples were tested at a South African National Accreditation System (SANAS) approved microbiological testing facility. Each was tested for total micro-organism, yeast and mould counts to determine the affect of the various treatments. A similar procedure to that described in K. A. Rosentrater et al, Food Bioprocess Technol (2008) was used for the microbiological evaluation.
At the laboratory, the samples were thoroughly mixed and initially split into a first portion (Portion 1) and a second portion (Portion 2). Portion 1 was left untreated. A sample of Portion 1, was delivered immediately to a microbiological testing facility about 15 kilometres away from the treatment laboratory and was tested for initial total microbial, yeast and mould counts, respectively. No water removal prior to treatment was done in this experiment as was the case in Example 8 wherein a similar wet material was partially dewatered by pressing and the residue treated with 10% (w/w/) calcium oxide.
Samples from Portion 2 were subjected to treatment with varying amounts of a powdered, commercially-available calcium oxide containing approximately 94% calcium oxide (CaO) as shown in Table 32. […] The samples were stored in batches (according to the calcium oxide treatment) under insect-proof screens at ambient temperature for fifty six days. Separate untreated samples were similarly stored under insect-proof screens at ambient temperature for a total of 56 days. During the trial period the ambient temperature ranged from 10 to 30 degrees C. As this period was the southern hemisphere spring/early summer, the humidity as well as ambient temperatures varied widely.
as §1, with “79.4%” for “78.1%”
Samples from each treatment were drawn every seven days. No further calcium oxide treatment or agitation took place after the initial mix. In each case the entire sample was isolated and delivered to the microbiological testing facility.
The calcium oxide treatment trial described in Example 9 wherein wet distiller's grains were treated with 2.5%, 5% and 10.0% calcium oxide, respectively, versus untreated material was repeated using lower doses of calcium oxide. In this trial the same source of wet distiller's grains (again with now partial water removal prior to treatment) was treated. Also, the same protocol as described in Example 9 was applied, but at lower doses of calcium oxide i.e. 0.5%, 1.0%, 1.5%, 2.0% and 2.5%, respectively, versus untreated material.
In this trial the same source of wet distiller's grains (again with now partial water removal prior to treatment) was treated. Also, the same protocol as described in Example 9 was applied.

[1] = pH of suspensions of grain samples in distilled water or PBS; details: 1% (w/w) in distilled water
Description: The untreated sample (A) was compared visually against the corresponding quicklime-treated sample (B).
On Day 7, 10 g amounts of each sample were suspended in either 90 ml PBS or 90 ml sterile distilled water and shaken for 10 minutes. The pH of each suspension was then measured and compared.
On Day 9, 10 g of each sample was suspended in 90 ml PBS and shaken for 10 minutes. The pH was measured.

[Ca+2].[OH-].[OH-] [(CaOH)2 powder]
Yeast Count (yeast; dose 3.3% (w/w), week 0): <10 cfu/gram | Yeast Count (yeast; dose 3.3% (w/w), week 1): <10 cfu/gram | Yeast Count (yeast; dose 3.3% (w/w), week 2): <10 cfu/gram | Yeast Count (yeast; dose 3.3% (w/w), week 3): <10 cfu/gram | Yeast Count (yeast; dose 3.3% (w/w), week 4): <10 cfu/gram | Yeast Count (yeast; dose 3.3% (w/w), week 5): <10 cfu/gram | Yeast Count (yeast; dose 3.3% (w/w), week 6): <10 cfu/gram | Yeast Count (yeast; dose 3.3% (w/w), week 7): <10 cfu/gram | Yeast Count (yeast; dose 6.6% (w/w), week 0): <10 cfu/gram | Yeast Count (yeast; dose 6.6% (w/w), week 1): <10 cfu/gram | Yeast Count (yeast; dose 6.6% (w/w), week 3): <10 cfu/gram | Yeast Count (yeast; dose 6.6% (w/w), week 4): <10 cfu/gram | Yeast Count (yeast; dose 6.6% (w/w), week 5): <10 cfu/gram | Yeast Count (yeast; dose 6.6% (w/w), week 6): <10 cfu/gram | Yeast Count (yeast; dose 6.6% (w/w), week 7): <10 cfu/gram | Yeast Count (yeast; dose 6.6% (w/w), week 8): <10 cfu/gram | Yeast Count (yeast; dose 6.6% (w/w), week 9): <10 cfu/gram | Mould Count (mould; dose 3.3% (w/w), week 0): <10 cfu/gram | Mould Count (mould; dose 3.3% (w/w), week 1): <10 cfu/gram | Mould Count (mould; dose 3.3% (w/w), week 2): <10 cfu/gram | Mould Count (mould; dose 3.3% (w/w), week 3): <10 cfu/gram | Mould Count (mould; dose 3.3% (w/w), week 4): <10 cfu/gram | Mould Count (mould; dose 3.3% (w/w), week 5): <10 cfu/gram | Mould Count (mould; dose 3.3% (w/w), week 6): <10 cfu/gram | Mould Count (mould; dose 3.3% (w/w), week 7): <10 cfu/gram | Mould Count (mould; dose 3.3% (w/w), week 8): <10 cfu/gram | Mould Count (mould; dose 6.6% (w/w), week 0): <10 cfu/gram | Mould Count (mould; dose 6.6% (w/w), week 1): <10 cfu/gram | Mould Count (mould; dose 6.6% (w/w), week 2): <10 cfu/gram | Mould Count (mould; dose 6.6% (w/w), week 3): <10 cfu/gram | Mould Count (mould; dose 6.6% (w/w), week 4): <10 cfu/gram | Mould Count (mould; dose 6.6% (w/w), week 5): <10 cfu/gram | Mould Count (mould; dose 6.6% (w/w), week 6): <10 cfu/gram | Mould Count (mould; dose 6.6% (w/w), week 7): <10 cfu/gram | Mould Count (mould; dose 6.6% (w/w), week 8): <10 cfu/gram | Mould Count (mould; dose 6.6% (w/w), week 9): 10 cfu/gram | pH ([1]; dose 3.3% (w/w), week 0): 11.78 | pH ([1]; dose 3.3% (w/w), week 1): 11.57 | pH ([1]; dose 3.3% (w/w), week 2): 8.69 | pH ([1]; dose 3.3% (w/w), week 3): 9.08 | pH ([1]; dose 3.3% (w/w), week 4): 8.45 | pH ([1]; dose 3.3% (w/w), week 5): 7.66 | pH ([1]; dose 3.3% (w/w), week 6): 9.32 | pH ([1]; dose 3.3% (w/w), week 7): 7.25 | pH ([1]; dose 3.3% (w/w), week 8): 9.29 | pH ([1]; dose 6.6% (w/w), week 0): 12.90 | pH ([1]; dose 6.6% (w/w), week 1): 12.30 | pH ([1]; dose 6.6% (w/w), week 2): 11.08 | pH ([1]; dose 6.6% (w/w), week 3): 11.78 | pH ([1]; dose 6.6% (w/w), week 4): 9.51 | pH ([1]; dose 6.6% (w/w), week 5): 7.68 | pH ([1]; dose 6.6% (w/w), week 6): 10.61 | pH ([1]; dose 6.6% (w/w), week 7): 7.25 | pH ([1]; dose 6.6% (w/w), week 8): 9.13 | pH ([1]; dose 6.6% (w/w), week 9): 8.84
